Measurements from article PMC5781198 (Influenza and Other Respiratory Viruses, 2013).

Legend:
[1] = system: influenza B viruses, neuraminidase (NA); assay type: biochemical, Influenza B virus
[2] = system: influenza A(H1N1)pdm09 viruses, neuraminidase (NA); assay type: biochemical, Influenza A(H1N1)pdm09 virus
[3] = system: influenza B Victoria lineage viruses, neuraminidase (NA); assay type: biochemical, Influenza B virus (Victoria lineage)
[4] = system: influenza A(H3N2) viruses, neuraminidase (NA); assay type: biochemical, Influenza A(H3N2) virus
[5] = system: A/Puerto Rico/34/2011 NA (D151D/G/N); assay type: biochemical, Influenza A(H3N2) virus

Structure (SMILES)	susceptibility in words [1]	IC50 of outliers relative to the mean IC50 for the drug [2]	susceptibility in words [2]	susceptibility of A(H1N1)pdm09 viruses compared with A(H3N2) viruses [2]	difference in IC50 between Victoria and Yamagata lineage viruses [3]	IC50 of outliers relative to the mean IC50 for the drug [4]	susceptibility in words [4]	fold difference in IC50 [5]	sensitivity compared with the other three NAIs [2]	sensitivity compared with zanamivir and laninamivir [4]
[H]/N=C(\N)N[C@H]1C=C(C(=O)O)O[C@@H]([C@H](OC)[C@H](O)CO)[C@@H]1NC(C)=O [Laninamivir, laninamivir]	showed sensitivity to the drug	approximately twofold more	showed sensitivity to the drug	approximately twofold more sensitive	no apparent differences	approximately twofold more	showed sensitivity to the drug	–	–	–
CCC(CC)[C@H](NC(C)=O)[C@@H]1[C@H](O)[C@@H](C(=O)O)C[C@H]1N=C(N)N [Peramivir, peramivir]	–	–	–	approximately twofold more sensitive	no apparent differences	–	–	0·08 (1) fold	fourfold more sensitive	threefold more sensitive
CC(=O)N[C@H]1[C@H]([C@H](O)[C@H](O)CO)OC(C(=O)O)=C[C@@H]1N=C(N)N [Zanamivir, zanamivir]	showed sensitivity to the drug	–	all showed sensitivity to the drug	approximately twofold more sensitive	no apparent differences	–	–	–	–	–
